Values of other authors as cited in patent US20050171434A1, “Chromophore probes for optical imaging” (VisEn Medical, Inc., priority 2002, published 2005).

Cy5.5
λem (emission wavelength): 694 nm | λex (excitation wavelength): 675 nm
